Test system: CD11b+ cells adhesion to endothelium
Test: Adhesion of CD11b+ cells to endothelium (Example 1 adhesion assay)
Format: cell-based, murine
Settings: SDF-1α, TCM or IL-1β (and other chemoattractant) induced
Protocol: TCM was prepared from serum-free media cultured on LLC cells for 18 h and filtered through 0.22 μm filters. 10^5 calcein-AM labelled human or murine CD11b+ cells in TCM or DMEM containing 200 ng/ml SDF-1α, IL-1β, IL-6, IL-8 or VEGF-A (R&D Systems) were incubated on HUVEC monolayers or on plastic plates coated with 5 μg/ml recombinant soluble VCAM-1 (R&D Systems). Adherent cells were quantified using a fluorescence activated plate reader (GeniosPro, TECAN). In some assays, cells were also incubated in 25 μg/ml anti-integrin α4β1 (PS2 for murine cells and HP2/1 for human cells, gifts from Biogen-Idec) and isotype control antibodies (IgG2bk for murine cells and IgG1 for human cells). In some studies, cells were incubated in 10 μM pan PI3K inhibitors […] or TG020, in PI3kinase α inhibitor PI3K75, PI3kinase γ/δ inhibitor TG115 and an inert control.

## c1cc(CN2CCCNCCNCCCNCC2)ccc1CN1CCCNCCNCCCNCC1 [AMD3100]
  CD11b+ cell adhesion to endothelium: inhibited SDF-1α, and TCM-induced but not IL-1β induced adhesion
